Converted amounts (≈) assume the structure as drawn. Read-outs that look alike come from different tables or passages of the source.
Columns and labels:
[1] = Stability of human plasma within 24 h; assay type: in vitro ADME
From the text: (§1) The test result was shown in the following table, with MSA2 (Science. 2020, 369, eaba6098) as a reference compound.

[2] = Stability of rat liver microsome within 2 h; assay type: in vitro ADME
From the text: as §1

THP1-dual cells = experiment: Luciferase assay based on THP1-dual cells; assay type: cell-based; details: final concentration of compound 10 μL (so in the source), 24 h at 37° C.
Description: (§2) THP1-dual™ (Invivogen: thpd-nfis) cells or RAW-Lucia™ (Invivogen: rawl-isg) cells were diluted using a culture medium, and 180 μL of cell suspension was sucked and inoculated in a 96-well plate, such that each well contain 1×10^5 cells. 20 μL of a compound to be tested was added into the 96-well plate (the final concentration of said compound was […], and the final volume of each well was […]) and cultured at 37° C. for 24 h. 10 μL of supernatant was sucked into a new 96-well white plate, and 50 μL of a QUANT-Luc reagent was added. After full and even mixing, a microplate reader was used immediately for determination. There were three repeated wells set in the assay. The test result was represented as agitation fold and calculated by (test well−blank well)/(negative well−blank well). The test result was in the following tablet, with 2′,3′-cGAMP as a positive control, where *** represented an agitation fold of 20 or more, ** represented an agitation fold of 10 to 20, and * represented an agitation fold of 1 to 10.

THP1 cells [3] = experiment: Interferon β induction assay based on THP1 cells (ELISA); assay type: cell-based; details: Homo sapiens, THP-1, compound 20 μM, 3.5 h, read-out: Secretion of IFNβ in THP1 cells, effect relative to 2′,3′-cGAMP at 20 μM (%)
Description: Secreted cytokine IFNβ was determined by ELISA. THP1 cells were inoculated in a 96-well plate (there was no serum contained in an RPMI 1640 medium), such that the number of cells in each well ranged from 5×10^5 to 7×10^5. A DMSO stock solution of 10 mM was prepared from a compound to be tested, diluted with a culture medium to a target concentration to be added into the 96-well plate containing cells (the final concentration of said compound was 20 μM, and the final volume of each well was 200 μL), and cultured at 37° C. in 5% CO2 for 3.5 h. The cells were collected at 4° C. and centrifuged at 1,000 rpm for 20 mins, and supernate was collected for ELISA determination. There were three repeated wells set in the assay. The result was shown in the following tablet, with 2′,3′-cGAMP as a positive control, where the test result was represented as a percentage of activity relative to 2′,3′-cGAMP at a concentration of 20 μM.

RAW-Lucia cells = experiment: Luciferase assay based on RAW-Lucia cells; assay type: cell-based; details: 24 h at 37° C.
Description: as §2

THP1 cells [4] = experiment: THP1 cell growth inhibition activity; assay type: cell-based
From the text: as §1

Water solubility = assay type: physicochemical
From the text: as §1

LogP = assay type: physicochemical
From the text: as §1

[5] = stability of human plasma within 24 h
[6] = stability of rat liver microsome within 2 h
[7] = PBS, aqueous buffer, read-out: water solubility, PBS
[8] = water, read-out: water solubility, Water

With `COc1cc2cc(C(=O)CCC(=O)O)[se]c2cc1OC` [I-1, 4-(5,6-dimethoxybenzo[b]selenophene-2-yl)-4-oxobutanoic acid] the “hPlasma @ 24 h (%)” value [1, 5] was greater than 90%, the “RLM @ 2 h (%)” value [2, 6] was greater than 90% and the “Agitation activity in luciferase assay, THP1-dual (agitation fold)” value (THP1-dual cells) was “*** (*** represented an agitation fold of 20 or more)”. The Emax at 20 µM (THP1 cells [3]) was 259%, the “Agitation activity in luciferase assay, RAW-Lucia (agitation fold)” value (RAW-Lucia cells) was “*** (*** represented an agitation fold of 20 or more)” and the IC50 (THP1 cells [4]; Homo sapiens, THP-1) was greater than 100 µM. It also gave a solubility (Water solubility; [7]) of 1900 µg/mL (≈ 5570 µM), a solubility (Water solubility; [8]) of 36 µg/mL (≈ 106 µM) and a logP (LogP; read-out: LogP) of 2.5.

With `COc1cc2cc(C(=O)CC(C)C(=O)O)[se]c2cc1OC` (stereo not drawn) [I-2, 4-(5,6-dimethoxybenzo[b]selenophene-2-yl)-2-methyl-4-oxo-butanoic acid] the “hPlasma @ 24 h (%)” value [1, 5] was greater than 90%, the “RLM @ 2 h (%)” value [2, 6] was greater than 90% and the “Agitation activity in luciferase assay, THP1-dual (agitation fold)” value (THP1-dual cells) was “*** (*** represented an agitation fold of 20 or more)”. The Emax at 20 µM (THP1 cells [3]) was 245%, the “Agitation activity in luciferase assay, RAW-Lucia (agitation fold)” value (RAW-Lucia cells) was “*** (*** represented an agitation fold of 20 or more)” and the IC50 (THP1 cells [4]; Homo sapiens, THP-1) was greater than 100 µM. For the same compound, the solubility (Water solubility; [7]) was 1000 µg/mL (≈ 2810 µM), the solubility (Water solubility; [8]) was 30 µg/mL (≈ 84.4 µM) and the logP (LogP; read-out: LogP) was 2.4.

In the case of `CCC(CC(=O)c1cc2cc(OC)c(OC)cc2[se]1)C(=O)O` (stereo not drawn) [I-14, 4-(5,6-dimethoxybenzo[b]selenophene-2-yl)-2-ethyl-4-oxo-butanoic acid], the “hPlasma @ 24 h (%)” value [1, 5] is reported as greater than 90%, the “RLM @ 2 h (%)” value [2, 6] is reported as greater than 90% and the “Agitation activity in luciferase assay, THP1-dual (agitation fold)” value (THP1-dual cells) is reported as “*** (*** represented an agitation fold of 20 or more)”. For the same compound, the Emax at 20 µM (THP1 cells [3]) was 260%, the “Agitation activity in luciferase assay, RAW-Lucia (agitation fold)” value (RAW-Lucia cells) was “*** (*** represented an agitation fold of 20 or more)” and the IC50 (THP1 cells [4]; Homo sapiens, THP-1) was greater than 100 µM. The solubility (Water solubility; [7]) was 700 µg/mL (≈ 1900 µM), the solubility (Water solubility; [8]) was 28 µg/mL (≈ 75.8 µM) and the logP (LogP; read-out: LogP) was 2.7.

In the case of `COc1cc2cc(C(=O)C3CCC3C(=O)O)[se]c2cc1OC` (stereo not drawn) [I-23], the “Agitation activity in luciferase assay, THP1-dual (agitation fold)” value (THP1-dual cells) is reported as “*** (*** represented an agitation fold of 20 or more)”, the Emax at 20 µM (THP1 cells [3]) is reported as 273% and the “Agitation activity in luciferase assay, RAW-Lucia (agitation fold)” value (RAW-Lucia cells) is reported as “*** (*** represented an agitation fold of 20 or more)”.

For `COc1cc2cc(C(=O)C3CCCCC3C(=O)O)[se]c2cc1OC` (stereo not drawn) [I-24], the “Agitation activity in luciferase assay, THP1-dual (agitation fold)” value (THP1-dual cells) was “** (** represented an agitation fold of 10 to 20)”, the Emax at 20 µM (THP1 cells [3]) was 142% and the “Agitation activity in luciferase assay, RAW-Lucia (agitation fold)” value (RAW-Lucia cells) was “** (** represented an agitation fold of 10 to 20)”.

In the case of `COc1cc2cc(C(=O)CCC(=O)O)sc2cc1OC` [MSA2, reference compound], the “hPlasma @ 24 h (%)” value [1] is reported as greater than 90%, the “RLM @ 2 h (%)” value ([2]; rat, microsomes, 2 h) is reported as greater than 90% and the IC50 (THP1 cells [4]) is reported as greater than 100 µM. For the same compound, the “water solubility, PBS” value (Water solubility) was 0.4 mg/mL (≈ 1360 µM), the “water solubility, Water” value (Water solubility) was 6 µg/mL (≈ 20.4 µM) and the logP (LogP) was 1.5.

Reference: US12606538B2, “Benzo[b]selenophene sting regulator, preparation method and use thereof” (CHINA PHARMACEUTICAL UNIVERSITY, priority 2021, dated 2026)
